# Source: article PMC9114170, “Investigation of the Role of Hydrophobic Amino Acids on the Structure-Activity Relationship in the Antimicrobial Venom Peptide Ponericin L1” (The Journal of membrane biology, 2021)
# Ends that are not written are not given here.
# Experiments:
# [1] = Acrylamide quenching of Trp fluorescence in absence and presence of lipid vesicles; type: physicochemical; conditions: 2 μM peptide in PBS pH 7.0, λex 295 nm, λem 340, average of three replicates ± SD; for Acrylamide quenching Ksv, PCPG: 3:1 DOPC:DOPG vesicles; for Acrylamide quenching Ksv, PCPG / Acrylamide quenching Ksv, PEPG / Acrylamide quenching Ksv, PC / Acrylamide quenching Ksv, PC/Chol: 250 μM lipid; for Acrylamide quenching Ksv, PEPG: 3:1 POPE:DOPG vesicles; for Acrylamide quenching Ksv, PC: DOPC vesicles; for Acrylamide quenching Ksv, PC/Chol: DOPC:Cholesterol vesicles; for Acrylamide quenching Ksv, PBS: no lipid vesicles
# Procedure: To form small unilamellar vesicles (SUVs) sonication or ethanol dilution methods were implemented ([Caputo & London, 2019]). In all cases, lipid vesicle preparation was the same. Depending on the lipid composition, appropriate volumes of lipids in chloroform were mixed in a glass tube and then allowed to dry under N2 gas for 15 minutes. The lipid films were then placed in a vacuum desiccator and allowed to dry further under a vacuum for 1 hour. For vesicles formed through ethanol dilution methods, 10 μL of pure ethanol was added to the film, and then vortex until the dissipation of the film. While continuing to vortex, the appropriate amount of PBS was added. For vesicles formed using the method of sonication, PBS was added directly to the tube while being vortexed to create multilamellar vesicles (MLVs). The MLV suspension was covered with parafilm and then placed in a high-powered bath sonicator (Avanti Lipids) and subjected to sonication for 20 minutes to create SUVs.
# Acrylamide quenching was monitored by titration of samples with 10 μL aliquots of 4M acrylamide titrated into peptide samples prepared as described above. These samples contained either or [0.25] mM total lipid. After each addition of acrylamide, Trp fluorescence intensity was measured using λex = 295 nm and λem = 340. Corrections to the emission intensity were made for background subtraction, dilutions, and inner filter effects in the excitation path as described previously. The same method to calculate Ksv was used as above.
# In order to gain more insight into the bilayer interactions, fluorescence quenching approaches were utilized. The peptides were exposed to the aqueous quencher acrylamide in solution or when bound to vesicles. […] Thus, peptide Trp exposure to the aqueous milieu can be gauged by the extent of quenching by acrylamide. Stern-Volmer quenching plots were created to analyze the data and Ksv (slopes of a linear fit to the data) are shown in Figure 4 and Table 2. […] In the case of L1L and L1I, there was a significant reduction in quenching between the solution (free) state of the peptide and when bound to anionic vesicles, but a much smaller reduction if any when interacting with zwitterionic vesicles. This is consistent with a more deeply buried Trp in anionic bilayers.
# [2] = tested on: E. coli D31 outer membrane; assay: E. coli outer membrane permeabilization (nitrocefin / β-lactamase); type: cell-based, Escherichia coli; conditions: E. coli D31, nitrocefin hydrolysis, absorbance 486 nm, up to 90 minutes; peptide serially diluted from 15 μM; average of three replicates
# Procedure: A single colony of E.coli D31 was taken from an LB agar plate and inoculated into fresh LB broth with 100 μg/mL ampicillin (LB-Amp), then place in a shaking incubator at 37 C (225 rpm) for ~ 18 hours. After the incubation period 100 μL was taken from the culture and diluted with 25 mL of fresh LB-Amp. The dilution was further incubated in the same conditions until an OD600 of 0.2 to 0.4 was obtained. Once the specified OD600 was reached the culture was then centrifuged at 2500 rpm for 15 minutes in a tabletop clinical centrifuge. The supernatant was discarded and then an equal amount of PBS (100 mM NaH2PO4, 200 mM NaCl, pH7) was used to resuspend the pellet.
# Experimental samples were prepared in a 96-well plate in the order as follows: 10 μL of the six peptide variants that were serially diluted starting a concentration of 15 μM with the exception of the last row (used as a negative control 10 μL of 0.01% acetic acid). 80 μL of the resuspended bacteria culture, and 10 μL of 50 μg/mL nitrocefin in PBS. The absorbance was recorded at 486 nm in 5-minute intervals for a total run time of 90 minutes immediately following the addition of nitrocefin. The antimicrobial agent polymyxin B was used as a positive control. The values presented are the average of three replicates.
# As the mechanism of action of the L1 venom peptide is likely a membrane disruptive mechanism, the effect of the hydrophobic substitutions on membrane permeabilization was investigated using E.coli and ovine red blood cells (RBCs). The permeabilization of the E. coli outer membrane was assayed using an enzyme-substrate pair in which the enzyme (β-lactamase) is located in the periplasmic space while the substrate (the chromogenic nitrocefin) is added to the exterior of cells. […] Similarly, the permeabilization of the E. coli inner membrane was assessed using a cytoplasmic enzyme, β-galactosidase, and a chromogenic substrate, ONPG. […]
# [3] = tested on: Gram-positive and Gram-negative strains; assay: Antimicrobial activity over the MIC panel; type: cell-based; conditions: highest concentration tested 15μM
# Procedure: Six different strains of bacteria were streaked on LB-Miller agar plates from a frozen glycerol stock derived from the original samples shipped from CGSC (Coli Genetic Stock Center, Yale University) or ATCC (American Type Culture Collection) (Escherichia coli D31 CGSC 5165 ([Burman, Nordstrom & Boman, 1968]), Staphylococcus aureus ATCC 35556. Pseudomonas aeruginosa PA-01 ATCC 47085, Acinetobacter baumannii ATCC 19606). For each of the strains a liquid overnight culture was prepared using a single colony into fresh LB broth and placed in a shaking incubator for ~ 18 hours at 37 C at 225 rpm. After the incubation period, a 1:200 dilution was made in fresh LB broth and then used for experimentation. Minimal Inhibitory Concentration (MIC) determinations were performed using mid-log phase bacteria diluted to 5 x 10^5 CFU/mL. Next, 90 μL of this diluted culture was then pipetted into a sterile 96-well plate that contains serially diluted aliquots of the peptide variants to consist of a total volume of 100 μL. This plate was then incubated for 18 hours at 37 C. Bacterial growth was determined by taking an OD600 measurement using a Spectramax M5 multimode plate reader post incubation. Minimal Bactericidal Concentration (MBC) was performed by taking 1 μL of the culture from the MIC plate and then pipetting it on to a fresh LB agar plate. After plating this culture, the plate was then incubated overnight at 37 C. MBC was determined by the growth or the lack of growth from each well on the agar plate.
# The ability of L1 and the hydrophobic variants to act as antimicrobials was investigated using the Minimal Inhibitory Concentration (MIC) and Minimal Bactericidal Concentration (MBC) assays as previously described ([Wiegand, Hilpert & Hancock, 2008]). The MIC is determined as the lowest concentration of peptide required to inhibit bacterial growth in solution, while the MBC is the lowest concentration required to act in a bactericidal mechanism (as opposed to bacteriostatic) and is determined by plating MIC cultures on antimicrobial-free media. Peptides were screened against E. coli, S. aureus, A. baumannii, P. aeruginosa, B. subtilis, and K. pneumoniae.
# [4] = Trichloroethanol (TCE) quenching of Trp fluorescence, solution aggregation assay; type: physicochemical; conditions: 2 μM peptide in PBS pH 7.0, titration with 10M TCE, λex 280 nm, λem 340, average of three replicates
# Procedure: Trichloroethanol (TCE) quenching was monitored by titration of samples with 10 μL aliquots of 10M TCE (Alfa Aesar, Haverhill, Massachusetts) into peptide samples prepared as described above. After each addition of TCE, Trp fluorescence intensity was measured using λex = 280 nm and λem = 340. Corrections to the emission intensity were made for background subtraction and dilutions. The slope of the linear best fit equation to the data (eqn 2) was used as the Stern-Volmer quenching constant (Ksv) (2) F0/F=1+Ksv[Q] where F0 is the fluorescence intensity in the absence of quencher, and F is the fluorescence intensity in the presence of a given concentration of quencher [Q].
# The environment of the L1 Trp residue was further probed using fluorescence quenching by trichloroethanol (TCE) which selectively exerts quenching on Trp residues which are shielded from the aqueous milieu, such as at the interior of a peptide aggregate. The results are shown in Figure 2B, with the Ksv values for the quenching shown in Supplemental Table 1. […] However, considering the reduced overall hydrophobicity of this peptide and thus higher aqueous solubility, decreased TCE quenching is not surprising.
# [5] = Red edge excitation shift (REES) solution aggregation assay; type: physicochemical; conditions: 2 μM peptide in PBS pH 7.0, λex 280 to 307 nm, emission 310 to 410 nm, Trp fluorescence, average of three replicates
# Source text: All fluorescence spectroscopy experiments were preformed using a JY-Horiba Fluoromax4 instrument. Excitation and emission slit widths were kept consistent at 2.5 nm. Semi-micro quartz cuvettes were utilized for each experiment. The following formula was used to calculate a spectral barycenter for each experiment: (1) B=∑λ*i/∑i where B is the barycenter, λ is the wavelength, and i is the intensity at the specified wavelength. An entire emission spectrum from 300-400 was used the carry out the calculation of barycenter.
# Red edge excitation shift (REES) experiments utilized excitation at 6 different wavelengths (λex = 280, 290, 295, 300, 305, and 307 nm) and the same emission range of 310 to 410 nm. Samples were similarly prepared as above. A blank only containing PBS buffer was used as background to correct the spectra after each addition.
# Aggregation of peptides was assessed utilizing the intrinsic fluorescence properties of the Trp residue in the L1 sequence. […] Differences in the side chain motion/dynamics of the Trp residue and the local environment around the Trp can be observed by monitoring the red-edge excitation shifts (REES). […]
# [6] = tested on: Sheep red blood cells (RBCs); conditions: earlier work of the group; ref Senetra, Necelis & Caputo, 2020b; cited from earlier work
# Source text: The ponerine ant, Neoponera goeldii (previously classified as Pachycondyla goeldii), produces a mixture of venom peptides known as ponericins ([Orivel et al., 2001]). These peptides have been subdivided into three sub-classes based on the amino acid sequences (L, W, and G) and contain a total of 15 independent peptide sequences. […] Among these peptides, the L1 sequence was the most poorly characterized.
Sequence,"Acrylamide quenching Ksv, PCPG [1] [M⁻¹]","Acrylamide quenching Ksv, PEPG [1] [M⁻¹]","Acrylamide quenching Ksv, PC [1] [M⁻¹]","Acrylamide quenching Ksv, PC/Chol [1] [M⁻¹]","Acrylamide quenching Ksv, PBS [1] [M⁻¹]",Outer membrane permeabilization [2],Antimicrobial activity (summary of MIC results) [3],TCE quenching of Trp fluorescence (extent) [4],REES total shift [5],Hemolytic activity [6]
IIKEIWTKMKGAGKAIIGKIKGII [L1I],8.72 ± 2.09,3.39 ± 2.25,4.9 ± 1.51,12.65 ± 0.63,10.5 ± 0.67,no membrane disruption above background,broad spectrum activity,–,–,–
AAKEAWTKMKGAGKAAAGKAKGAA [L1A],10.9 ± 0.26,3.59 ± 0.58,8.51 ± 0.46,10.79 ± 0.27,8.19 ± 0.90,–,no antimicrobial activity,markedly lower than the others,–,–
VVKEVWTKMKGAGKAVVGKVKGVV [L1V],16.86 ± 6.47,5.64 ± 0.38,4.18 ± 0.15,12.19 ± 1.54,12.14 ± 1.59,–,no antimicrobial activity,showed the most quenching,~ 10 nm,–
"LLKELWTKMKGAGKAVLGKIKGLL [L1, ponericin L1]",–,–,–,–,–,–,–,–,–,very low level of hemolytic activity
